Results: US20050079232A1, “Composition for promotion of bone growth and maintenance of bone health” (priority 2001, published 2005)

Key:
BMP-2 promoter = assay: BMP-2 luciferase assay (BMP-2 gene reporter assay, bone formation); type: cell-based; conditions: 10^−6M; result in words
Protocol: BMP-2 luciferase assay—The activity of the extracts was determined using 2T3 cells containing the BMP-2 promoter operatively linked to the luciferase gene. An increase in luciferase activity in cell lysates reflects an increase in BMP-2 promoter activity. The extracts were assayed at an initial dilution of 100 μg/ml with ½ dilutions down to 0.2 μg/ml. BMP-2 promoter activity was measured by measuring the luciferase activity in cell extracts.

BMP-2 = assay: Endogenous BMP-2 mRNA expression in hPOB-tert cells by RT-PCR; type: cell-based, human; conditions: 0.5 μg/ml, positive control
Protocol: The plants found positive for BMP-2 induction in example 1 were further tested in a human periosteal/preosteoblast cell line, hPOB-tert for their ability to induce the endogenous expression of BMP-2. This test in osteoblast cells confirmed the results shown in example 1.
[…] Total RNA was extracted with TRIzol Reagent (Gibco). 10 μg RNA were reverse transcribed using the 1st Strand cDNA Synthesis Kit (Boehringer). BMP-2 cDNA sequences were amplified for 35 cycles at an annealing temperature of 55° C. using specific oligonucleotide primers (5′: […]; 3′: […]). PCR products were separated by agarose gel electrophoresis and detected by ethidium bromide staining. Quantification was performed using NIH Image Software and normalizing results with Actin as house-keeping gene.

| stimulation of BMP-2 (promoter activity) (BMP-2 promoter) | SMILES | induction of BMP-2 (BMP-2) [fold] |
| --- | --- | --- |
| stimulated BMP-2 | O=c1c(-c2ccc(O)cc2)coc2cc(O)ccc12 [daidzein] |  |
|  | CC[C@H](C)C(=O)O[C@H]1C[C@@H](C)C=C2C=C[C@H](C)[C@H](CC[C@@H]3C[C@@H](O)CC(=O)O3)[C@H]21 [lovastatin] | 2.5 |
| stimulated BMP-2 | O=c1c(-c2ccc(O)cc2)coc2cc(O)cc(O)c12 [genistein] |  |
